According to ChEMBL document CHEMBL5247579, “Targeting PGAM1 in cancer: An emerging therapeutic opportunity” (Eur J Med Chem, 2022):
Blank lines part the entries; values can stand above or below the compound they belong to.

Experiments:
[1] = target: T1, Phosphoglycerate mutase 1 (Homo sapiens, UniProt P18669); experiment: Inhibition of His-tagged recombinant PGAM1 (unknown origin) expressed in Escherichia coli BL21 assessed as decrease in absorbance from oxidation of NADH in presence of LDH, pyruvate kinase M1 and NADH by microplate reader assay
T1 sequence (P18669 whole entry): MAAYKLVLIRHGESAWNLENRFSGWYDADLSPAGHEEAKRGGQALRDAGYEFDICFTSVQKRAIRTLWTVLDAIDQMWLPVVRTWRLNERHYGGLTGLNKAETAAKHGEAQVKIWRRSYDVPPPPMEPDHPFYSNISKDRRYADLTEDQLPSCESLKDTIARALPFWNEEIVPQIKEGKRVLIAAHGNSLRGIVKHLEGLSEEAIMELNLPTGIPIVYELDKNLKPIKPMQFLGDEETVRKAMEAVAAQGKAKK

[2] = target: T1, Phosphoglycerate mutase 1; experiment: Inhibition of recombinant PGAM1 (unknown origin) assessed as decrease in absorbance in presence of LDH, pyruvate kinase M2 and NADH by spectroscopic analysis
[3] = tested on: ASPC1; experiment: Antiproliferative activity against human ASPC1 cells assessed as reduction in cell viability incubated for 24 hrs by CCK-8 assay; assay type: functional, cell-based; conditions: ASPC1, 24 h
[4] = tested on: PANC-1; experiment: Antiproliferative activity against human PANC-1 cells assessed as reduction in cell viability incubated for 24 hrs by CCK-8 assay; assay type: functional, cell-based; conditions: PANC-1, 24 h
[5] = tested on: MIA PaCa-2; experiment: Antiproliferative activity against human MIA PaCa-2 cells assessed as reduction in cell viability incubated for 24 hrs by CCK-8 assay; assay type: functional, cell-based; conditions: MIA PaCa-2, 24 h
[6] = tested on: A549; experiment: Antiproliferative activity against human A549 cells assessed as reduction in cell viability incubated for 72 hrs by MTT assay; assay type: functional, cell-based; conditions: A549, 72 h
[7] = tested on: NCI-H1299; experiment: Antiproliferative activity against human NCI-H1299 cells assessed as reduction in cell viability incubated for 72 hrs by MTT assay; assay type: functional, cell-based; conditions: NCI-H1299, 72 h
[8] = tested on: A549; experiment: Antitumor activity against human A549 cells assessed as reduction in cell viability incubated for 72 hrs by CCK-8 assay; assay type: functional, cell-based; conditions: A549, 72 h
[9] = tested on: HCC827; experiment: Antitumor activity against erlotinib-resistant human HCC827 cells assessed as reduction in cell viability incubated for 72 hrs by CCK-8 assay; assay type: functional, cell-based; conditions: HCC827, 72 h
[10] = tested on: HCC827; experiment: Antitumor activity against human HCC827 cells assessed as reduction in cell viability incubated for 72 hrs by CCK-8 assay; assay type: functional, cell-based; conditions: HCC827, 72 h
[11] = target: T1, Phosphoglycerate mutase 1; experiment: Allosteric inhibition of PGAM1 (unknown origin) assessed as decrease in absorbance in presence of LDH, pyruvate kinase M2 and NADH by spectroscopic analysis
[12] = target: T1, Phosphoglycerate mutase 1; experiment: Inhibition of His6-tagged human PGAM1 expressed in Escherichia coli BL21(DE3)pLysS cells assessed as decrease in autofluorescence from oxidation of NADH in presence of LDH and pyruvate kinase M1 by multiple enzymes coupled assay
[13] = tested on: KG-1a; experiment: Antiproliferative activity against human KG-1a cells assessed as decrease in cell viability incubated for 72 hrs by trypan blue exclusion assay; assay type: functional, cell-based
[14] = tested on: PC-9; experiment: Antiproliferative activity against human PC-9 cells assessed as reduction in cell viability incubated for 72 hrs by CCK8 assay; assay type: functional, cell-based; conditions: PC-9, 72 h
[15] = tested on: NCI-H1299; experiment: Antiproliferative activity against human NCI-H1299 cells assessed as decrease in cell viability incubated for 72 hrs by trypan blue exclusion assay; assay type: functional, cell-based; conditions: NCI-H1299, 72 h
[16] = tested on: A549; experiment: Antiproliferative activity against human A549 cells assessed as reduction in cell viability incubated for 72 hrs by CCK8 assay; assay type: functional, cell-based; conditions: A549, 72 h
[17] = tested on: MDA-MB-231; experiment: Antiproliferative activity against human MDA-MB-231 cells assessed as inhibition of cell proliferation incubated for 12 hrs by BrdU incorporation assay; assay type: functional, cell-based; conditions: MDA-MB-231, 12 h
[18] = target: T1, Phosphoglycerate mutase 1; experiment: Inhibition of human PGAM1 in human MDA-MB-231 cells assessed as decrease in PGAM1 activity incubated for 2 hrs by UV/Vis spectrophotometry; assay type: cell-based

- IC50 [1]: 1 µM
Structure (SMILES): CC(=O)Oc1ccccc1S(=O)(=O)Nc1cc2c(c(O)c1O)C(=O)c1ccccc1C2=O

- IC50 [2]: 0.105 µM
- EC50 [3]: 0.51 µM
- EC50 [4]: 0.501 µM
- EC50 [5]: 0.271 µM
Structure (SMILES): O=C1c2ccccc2C(=O)c2c1cc(NS(=O)(=O)c1ccc(N3CCCC3)cc1)c(O)c2O

- IC50 [1]: 1.3 µM
Structure (SMILES): [N-]=[N+]=NCCCCC(=O)Oc1ccccc1S(=O)(=O)Nc1cc2c(c(O)c1O)C(=O)c1ccccc1C2=O

- EC50 [6]: 12.7 µM
- EC50 [7]: 6.9 µM
Structure (SMILES): O=C1c2ccccc2C(=O)c2c1cc(NS(=O)(=O)c1ccc(Cl)cc1)c(O)c2O

- IC50 [2]: 0.77 µM
Structure (SMILES): CN(C)c1ccc(S(=O)(=O)Nc2cc3c(c(O)c2O)C(=O)c2ccccc2C3=O)cc1

- IC50 [2]: 5.4 µM
Structure (SMILES): O=C1c2ccccc2C(=O)c2c1cc(NS(=O)(=O)O)c(O)c2O

- EC50 [8]: 5.62 µM
- EC50 [9]: 1.02 µM
- EC50 [10]: 1.71 µM
- IC50 [11]: 0.85 µM
Structure (SMILES): O=C1c2ccccc2C(=O)c2c1cc(NS(=O)(=O)c1ccc(N3CCC3)cc1)c(O)c2O

- IC50 [12]: > 20 µM
Structure (SMILES): O=C1c2ccccc2C(=O)c2c1ccc(O)c2O [ATHRAQUINONES A]
- EC50 [13]: 60.2 µM

- EC50 [14]: 17.8 µM
- EC50 [15]: 25.6 µM
- EC50 [16]: 38.7 µM
Structure (SMILES): O=C1c2ccccc2C(=O)c2c1cc(S(=O)(=O)Nc1ccc(C(F)(F)F)cc1)c(O)c2O
- EC50 [13]: 17.1 µM

- IC50 [17]: 19 µM
- EC50 [18]: 33 µM
Structure (SMILES): C#CCCCC(=O)OC(C)(C)C1CCCOC(OC(=O)N[C@@H](Cc2c[nH]c3ccccc23)C(=O)OCc2ccccc2)C1 (some centres not stated)
